According to ChEMBL document CHEMBL5303573, “Mapping human microbiome drug metabolism by gut bacteria and their genes” (Nature, 2019):

Tests used:
[1] = roseburia intestinalis, 12 h, 2 µM
Description: The drug is tested on Roseburia intestinalis strain: L1-82 for biotransformation. The drug concentrations were measured before and after a 12-h incubation by liquid-chromatography-coupled mass spectrometry (LC–MS)

[2] = bacteroides eggerthii, 12 h, 2 µM
Description: The drug is tested on Bacteroides eggerthii strain: DSM20697 for biotransformation. The drug concentrations were measured before and after a 12-h incubation by liquid-chromatography-coupled mass spectrometry (LC–MS)

[3] = The drug is tested on Clostridium sporogenes strain: ATCC15579 for biotransformation. The drug concentrations were measured before and after a 12-h incubation by liquid-chromatography-coupled mass spectrometry (LC–MS); details: 2 µM
[4] = parabacteroides johnsonii, 12 h, 2 µM
Description: The drug is tested on Parabacteroides johnsonii strain: DSM18315 for biotransformation. The drug concentrations were measured before and after a 12-h incubation by liquid-chromatography-coupled mass spectrometry (LC–MS)

[5] = The drug is tested on Collinsella aerofaciens strain: ATCC25986 for biotransformation. The drug concentrations were measured before and after a 12-h incubation by liquid-chromatography-coupled mass spectrometry (LC–MS); details: 2 µM
[6] = enterocloster bolteae, 12 h, 2 µM
Description: The drug is tested on Clostridium bolteae strain: ATCCBAA-613 for biotransformation. The drug concentrations were measured before and after a 12-h incubation by liquid-chromatography-coupled mass spectrometry (LC–MS)

[7] = The drug is tested on Clostridium scindens strain: ATCC35704 for biotransformation. The drug concentrations were measured before and after a 12-h incubation by liquid-chromatography-coupled mass spectrometry (LC–MS); details: 2 µM
[8] = segatella copri, 12 h, 2 µM
Description: The drug is tested on Prevotella copri strain: DSM18205 for biotransformation. The drug concentrations were measured before and after a 12-h incubation by liquid-chromatography-coupled mass spectrometry (LC–MS)

[9] = The drug is tested on Ruminococcus torques strain: ATCC27756 for biotransformation. The drug concentrations were measured before and after a 12-h incubation by liquid-chromatography-coupled mass spectrometry (LC–MS); format: ADME; design: dose 2 uM, timepoint 0 vs 12 hours; details: 2 µM
[10] = The drug is tested on Anaerococcus hydrogenalis strain: DSM7454 for biotransformation. The drug concentrations were measured before and after a 12-h incubation by liquid-chromatography-coupled mass spectrometry (LC–MS); details: 2 µM
[11] = The drug is tested on Anaerotruncus colihominis strain: DSM17241 for biotransformation. The drug concentrations were measured before and after a 12-h incubation by liquid-chromatography-coupled mass spectrometry (LC–MS); details: 2 µM
[12] = The drug is tested on Bacteroides fragilis strain: HMW610 for biotransformation. The drug concentrations were measured before and after a 12-h incubation by liquid-chromatography-coupled mass spectrometry (LC–MS); details: 2 µM
[13] = The drug is tested on Clostridium symbiosum strain: ATCC14940 for biotransformation. The drug concentrations were measured before and after a 12-h incubation by liquid-chromatography-coupled mass spectrometry (LC–MS); details: 2 µM
[14] = The drug is tested on Bacteroides fragilis strain: HMW615 for biotransformation. The drug concentrations were measured before and after a 12-h incubation by liquid-chromatography-coupled mass spectrometry (LC–MS); details: 2 µM
[15] = anaerostipes sp., 12 h, 2 µM
Description: The drug is tested on Anaerostipes sp. strain: fecal isolate for biotransformation. The drug concentrations were measured before and after a 12-h incubation by liquid-chromatography-coupled mass spectrometry (LC–MS)

[16] = The drug is tested on Parabacteroides merdae strain: ATCC43184 for biotransformation. The drug concentrations were measured before and after a 12-h incubation by liquid-chromatography-coupled mass spectrometry (LC–MS); details: 2 µM
[17] = bifidobacterium adolescentis, 12 h, 2 µM
Description: The drug is tested on Bifidobacterium adolescentis strain: ATCC 15703 for biotransformation. The drug concentrations were measured before and after a 12-h incubation by liquid-chromatography-coupled mass spectrometry (LC–MS)

[18] = The drug is tested on Bacteroides ovatus strain: ATCC8483 for biotransformation. The drug concentrations were measured before and after a 12-h incubation by liquid-chromatography-coupled mass spectrometry (LC–MS); details: 2 µM
[19] = The drug is tested on Bacteroides finegoldii strain: DSM17565 for biotransformation. The drug concentrations were measured before and after a 12-h incubation by liquid-chromatography-coupled mass spectrometry (LC–MS); details: 2 µM
[20] = The drug is tested on Alistipes indistinctus strain: DSM22520 for biotransformation. The drug concentrations were measured before and after a 12-h incubation by liquid-chromatography-coupled mass spectrometry (LC–MS); details: 2 µM

Row | Compound | Bacterial Biotransformation [1] | Bacterial Biotransformation [2] | Bacterial Biotransformation [3] | Bacterial Biotransformation [4] | Bacterial Biotransformation [5] | Bacterial Biotransformation [6] | Bacterial Biotransformation [7] | Bacterial Biotransformation [8] | Bacterial Biotransformation [9] | Bacterial Biotransformation [10] | Bacterial Biotransformation [11] | Bacterial Biotransformation [12] | Bacterial Biotransformation [13] | Bacterial Biotransformation [14] | Bacterial Biotransformation [15] | Bacterial Biotransformation [16] | Bacterial Biotransformation [17] | Bacterial Biotransformation [18] | Bacterial Biotransformation [19] | Bacterial Biotransformation [20]
1 | COc1ccc(/C=C/C(=O)Nc2ccccc2C(=O)O)cc1OC | Compound NOT metabolized | Compound NOT metabolized | Compound NOT metabolized | Compound NOT metabolized | Compound NOT metabolized | Compound NOT metabolized | Compound NOT metabolized | Compound metabolized | Compound NOT metabolized | Compound metabolized | Compound NOT metabolized | Compound metabolized | Compound NOT metabolized | Compound NOT metabolized | Compound NOT metabolized | Compound NOT metabolized | Compound NOT metabolized | Compound metabolized | Compound metabolized | –
2 | CCCCC(=O)O[C@]1(C(=O)CO)[C@@H](C)C[C@H]2[C@@H]3CCC4=CC(=O)C=C[C@]4(C)[C@@]3(F)[C@@H](O)C[C@@]21C [BETAMETHASONE VALERATE] | Compound NOT metabolized | Compound metabolized | – | Compound metabolized | Compound NOT metabolized | Compound metabolized | Compound metabolized | Compound NOT metabolized | – | Compound NOT metabolized | Compound NOT metabolized | Compound metabolized | Compound NOT metabolized | Compound metabolized | Compound NOT metabolized | – | – | Compound NOT metabolized | Compound metabolized | –
3 | C[C@@H]1C[C@H]2[C@@H]3CCC4=CC(=O)C=C[C@]4(C)[C@@]3(F)[C@@H](O)C[C@]2(C)[C@@]1(O)C(=O)CO [DEXAMETHASONE] | – | Compound NOT metabolized | – | Compound metabolized | – | – | Compound metabolized | Compound NOT metabolized | Compound NOT metabolized | Compound NOT metabolized | – | Compound metabolized | Compound NOT metabolized | – | Compound NOT metabolized | – | Compound NOT metabolized | – | Compound NOT metabolized | Compound NOT metabolized
4 | CC12CC3CC(C)(C1)CC(N)(C3)C2 [MEMANTINE] | – | Compound NOT metabolized | Compound NOT metabolized | Compound NOT metabolized | Compound NOT metabolized | Compound NOT metabolized | Compound NOT metabolized | – | Compound NOT metabolized | Compound NOT metabolized | Compound NOT metabolized | Compound NOT metabolized | Compound NOT metabolized | Compound NOT metabolized | Compound NOT metabolized | Compound NOT metabolized | Compound NOT metabolized | Compound NOT metabolized | Compound NOT metabolized | –
